According to article PMC6199744, “Development of Chemical Proteomics for the Folateome and Analysis of the Kinetoplastid Folateome” (ACS Infectious Diseases, 2018):
Where two headings read alike, the source gives them in different places.

System: T. brucei lysate proteins
Assay type: binding, Trypanosoma brucei
Conditions: for abundance relative to vehicle: X016405, bead mixture, free compound 100.0uM, Trypanosoma brucei

Nc1nc2cccc(-c3ccccc3)c2n1Cc1ccc(Cl)c(Cl)c1 [compound 3]
abundance relative to vehicle (protein TB427.02.1850): 0.84 | abundance relative to vehicle (protein TB427.06.4760): 0.94 | abundance relative to vehicle (protein TB427.07.3620): 0.78 | abundance relative to vehicle (protein TB427.08.1880): 1.20 | fold change - vehicle control (protein RHS6A (CZT00028360.1)): 0.89 | fold change - vehicle control (protein TB09.160.1250 HY[…], CONSERVED): 0.88 | fold change - vehicle control (protein TB09.160.3670 RIBOSOMAL PROTEIN S6, PUTATIVE): 0.98 | fold change - vehicle control (protein TB09.211.2630 60S RIBOSOMAL PROTEIN L23, PUTATIVE): 0.92 | fold change - vehicle control (protein TB09.211.4513 KIN[…] PROTEIN KMP-11): 1.1 | fold change - vehicle control (protein TB11.V4.0005 RIBONUCLEOSIDE-DIPHOSPHATE REDUCTASE SMALL CHAIN): 0.81 | fold change - vehicle control (protein TB11.01.0870 R[…] A, 51KDA SUBUNIT, PUTATIVE): 1.11 | fold change - vehicle control (protein TB11.01.2560 40S RIBOSOMAL PROTEIN SA, PUTATIVE): 0.92 | fold change - vehicle control (protein TB11.01.4880 HY[…], CONSERVED): 0.9 | fold change - vehicle control (protein TB11.01.7090 HY[…], CONSERVED): 0.87 | fold change - vehicle control (protein TB11.02.2510 GUANINE NUCLEOTIDE-BINDING BETA SUBUNIT-LIKE PROTEIN): 0.96 | fold change - vehicle control (protein TB11.02.4170 40S RIBOSOMAL PROTEIN S5, PUTATIVE): 0.92 | fold change - vehicle control (protein TB11.03.0250 C[…]): 1.22 | fold change - vehicle control (protein TB11.46.0009 HY[…], CONSERVED): 0.89 | fold change - vehicle control (protein TB427TMP.01.0620 HY[…], CONSERVED): 0.76 | fold change - vehicle control (protein TB427TMP.01.1475 40S RIBOSOMAL PROTEIN S27, PUTATIVE): 1.02 | fold change - vehicle control (protein TB427TMP.01.4280 HY[…], CONSERVED): 0.82 | fold change - vehicle control (protein TB427TMP.01.4650 HY[…], CONSERVED): 0.97 | fold change - vehicle control (protein TB427TMP.01.4810 HY[…], CONSERVED): 0.99 | fold change - vehicle control (protein TB427TMP.01.5680 HY[…], CONSERVED): 0.54 | fold change - vehicle control (protein TB427TMP.01.8390 HY[…], CONSERVED): 0.84 | fold change - vehicle control (protein TB427TMP.02.0230 HY[…], CONSERVED): 1.04 | fold change - vehicle control (protein TB427TMP.02.0460 NUCLEOPORIN): 0.82 | fold change - vehicle control (protein TB427TMP.02.1106 NUCLEOBASE/NUCLEOSIDE TRANSPORTER 8 1): 1.05 | fold change - vehicle control (protein TB427TMP.160.2050 ENDO-BETA-N-ACETYLGLUCOSAMINIDASE, PUTATIVE): 0.92 | fold change - vehicle control (protein TB427TMP.160.4310 GLUTAMATE DEHYDROGENASE): 0.97 | fold change - vehicle control (protein TB427TMP.160.4450 40S RIBOSOMAL PROTEIN S3, PUTATIVE): 0.97 | fold change - vehicle control (protein TB427TMP.160.4630 HY[…], CONSERVED): 0.86 | fold change - vehicle control (protein TB427TMP.160.5200 HY[…], CONSERVED): 0.69 | fold change - vehicle control (protein TB427TMP.160.5670 HY[…], CONSERVED): 0.83 | fold change - vehicle control (protein TB427TMP.211.0930 POLYADENYLATE-BINDING PROTEIN 1): 0.97 | fold change - vehicle control (protein TB427TMP.211.1750 MIT[…] PROTEIN, PUTATIVE): 0.88 | fold change - vehicle control (protein TB427TMP.211.3510 ATP-DEPENDENT DEAD/H RNA HELICASE, PUTATIVE): 1.06 | fold change - vehicle control (protein TB427TMP.211.4540 RNA-BINDING PROTEIN, PUTATIVE): 1.05 | fold change - vehicle control (protein TB427TMP.244.2840 HY[…], CONSERVED): 0.92 | fold change - vehicle control (protein TB427.01.1240 CYTIDINE TR[…], PUTATIVE): 0.84 | fold change - vehicle control (protein TB427.01.2570 COATOMER BETA SUBUNIT): 0.73 | fold change - vehicle control (protein TB427.01.3910 HY[…], CONSERVED): 0.78 | fold change - vehicle control (protein TB427.02.450 RETRO[…] SPOT (RHS) PROTEIN, PUTATIVE): 0.81 | fold change - vehicle control (protein TB427.02.6240): 1.08 | fold change - vehicle control (protein TB427.04.3350 HY[…], CONSERVED): 0.72 | fold change - vehicle control (protein TB427.04.3890 ATP-DEPENDENT RNA HELICASE, PUTATIVE): 0.92 | fold change - vehicle control (protein TB427.04.4870 AMINO ACID TRANSPORTER, PUTATIVE): 0.87 | fold change - vehicle control (protein TB427.04.750 50S RIBOSOMAL PROTEIN L7AE, PUTATIVE): 1.12 | fold change - vehicle control (protein TB427.04.960 HY[…], CONSERVED): 0.88 | fold change - vehicle control (protein TB427.05.1490 HY[…], CONSERVED): 0.8 | fold change - vehicle control (protein TB427.05.1780 HY[…], CONSERVED): 0.77 | fold change - vehicle control (protein TB427.05.3030 INTR[…] PROTEIN IFT122, PUTATIVE): 0.89 | fold change - vehicle control (protein TB427.05.4560 GUANINE DEAMINASE, PUTATIVE): 0.7 | fold change - vehicle control (protein TB427.06.2150 CELL DIVISION CYCLE PROTEIN 16, PUTATIVE): 0.83 | fold change - vehicle control (protein TB427.06.3110 PROTEIN KINASE, PUTATIVE (CRK11)): 0.87 | fold change - vehicle control (protein TB427.06.5110 DAMAGE-SPECIFIC DNA BINDING PROTEIN, PUTATIVE): 0.98 | fold change - vehicle control (protein TB427.07.2670 HY[…], CONSERVED): 3.19 | fold change - vehicle control (protein TB427.07.3040 HY[…], CONSERVED): 0.98 | fold change - vehicle control (protein TB427.07.3530 HY[…], CONSERVED): 0.87 | fold change - vehicle control (protein TB427.07.4970 GLUTAMINE SYNTHETASE, PUTATIVE): 0.9 | fold change - vehicle control (protein TB427.07.5560 GLUCOSAMINE-FRUCTOSE-6-PHOSPHATE AMINOTRANSFERASE, PUTATIVE): 0.84 | fold change - vehicle control (protein TB427.07.5890 HY[…], CONSERVED): 0.79 | fold change - vehicle control (protein TB427.07.7070 HY[…], CONSERVED): 0.62 | fold change - vehicle control (protein TB427.07.7460 HY[…], CONSERVED): 0.91 | fold change - vehicle control (protein TB427.08.1500 HY[…], CONSERVED): 0.95 | fold change - vehicle control (protein TB427.08.1840 HY[…], CONSERVED): 0.95 | fold change - vehicle control (protein TB427.08.1960 HY[…], CONSERVED): 0.78 | fold change - vehicle control (protein TB427.08.2080 HY[…], CONSERVED): 1.08 | fold change - vehicle control (protein TB427.08.3750 NUCLEOLAR PROTEIN, PUTATIVE): 0.92 | fold change - vehicle control (protein TB427.08.6390 LYSOPHOSPHOLIPASE, PUTATIVE): 1.03 | fold change - vehicle control (protein TB427.10.10610 PROTEIN TYROSINE PHOSPHATASE, PUTATIVE): 0.69 | fold change - vehicle control (protein TB427.10.1100 60S RIBOSOMAL PROTEIN L9, PUTATIVE): 0.86 | fold change - vehicle control (protein TB427.10.12740): 0.9 | fold change - vehicle control (protein TB427.10.14660 HY[…], CONSERVED): 1.05 | fold change - vehicle control (protein TB427.10.15720 […]-ATP-ASE SUBUNIT 9): 0.82 | fold change - vehicle control (protein TB427.10.2440 METACASPASE MCA4): 0.84 | fold change - vehicle control (protein TB427.10.2900 IMPORTIN BETA-1 SUBUNIT, PUTATIVE): 0.79 | fold change - vehicle control (protein TB427.10.3470 HY[…], CONSERVED): 0.74 | fold change - vehicle control (protein TB427.10.4110 60S RIBOSOMAL PROTEIN L30): 0.91 | fold change - vehicle control (protein TB427.10.4610 […]-MANNOSE SYNTHASE, PUTATIVE): 0.85 | fold change - vehicle control (protein TB427.10.5250 HY[…], CONSERVED): 0.82 | fold change - vehicle control (protein TB427.10.5840 T[…] 1-BETA, PUTATIVE): 0.65 | fold change - vehicle control (protein TB427.10.7410 SUCCINYL-COA LIGASE GDP-FORMING] BETA-CHAIN, PUTATIVE): 0.85 | fold change - vehicle control (protein TB927.10.12960 RAS-RELATED PROTEIN RAB-5): 0.9 | fold change - vehicle control (protein TB927.10.14800 PROTEIN KINASE, PUTATIVE): 1.09 | fold change - vehicle control (protein TB927.10.2980 […]-ATPASE SUBUNIT 11): 1.07 | fold change - vehicle control (protein TB927.10.3660 ASPARTATE AMINOTRANSFERASE): 0.86 | fold change - vehicle control (protein TB927.10.4570 […] 2): 0.66 | fold change - vehicle control (protein TB927.10.5140 PROTEIN KINASE, PUTATIVE): 1.06 | fold change - vehicle control (protein TB927.10.560 40S RIBOSOMAL PROTEINS S11, PUTATIVE): 0.95 | fold change - vehicle control (protein TB927.10.6510 CHAPERONIN HSP60, MIT[…]): 0.86 | fold change - vehicle control (protein TB927.3.1840 3-OXO-5-ALPHA-STEROID 4-DEHYDROGENASE, PUTATIVE): 0.92 | fold change - vehicle control (protein TB927.3.3780 TRYPAREDOXIN): 0.85 | fold change - vehicle control (protein TB927.3.740 HY[…], CONSERVED): 0.91 | fold change - vehicle control (protein TB927.4.2740 HY[…], CONSERVED): 1.05 | fold change - vehicle control (protein TB927.4.3590 T[…] 1-BETA, PUTATIVE): 0.69 | fold change - vehicle control (protein TB927.6.4320 HY[…], CONSERVED): 0.75 | fold change - vehicle control (protein TB927.7.2550 […] SUBUNIT 5): 0.86 | fold change - vehicle control (protein TB927.7.2980 HY[…], CONSERVED): 0.75
